Experimental data reported in patent US20260262643A1, “HERBICIDAL BENZOXAZINES” (FMC CORPORATION, priority 2022, published 2026).

Tests used:
pigweed, palmer [1] = experiment: Test C preemergence; type: in vivo, Amaranthus palmeri; conditions: for Pigweed, Palmer plant response rating: 500 g ai/ha, preemergence, 0 to 100 scale (0 no effect, 100 complete control); for Plant response rating, Pigweed, Palmer: Preemergence, 125 g ai/ha, 0 to 100 scale, 0 no effect, 100 complete control
Outline: (§1)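 Seeds sown in loam soil–sand blend received a directed preemergence soil spray of test chemical in non-phytotoxic solvent with surfactant; postemergence plants (2–10 cm, one- to two-leaf stage) were sprayed with the same formulation. Greenhouse-held 10 days, then visually rated for injury versus untreated controls, 0 (no effect) to 100 (complete control).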

wheat [2] = experiment: Test C preemergence; type: in vivo, Triticum aestivum; conditions: for Wheat plant response rating: 500 g ai/ha, preemergence, 0 to 100 scale (0 no effect, 100 complete control); for Plant response rating, Wheat: Preemergence, 125 g ai/ha, 0 to 100 scale, 0 no effect, 100 complete control
Outline: as §1

soybean [3] = experiment: Test C postemergence; type: in vivo, Glycine max; conditions: 10 days, 0 to 100 scale (0 no effect, 100 complete control)
Outline: as §1

galium = experiment: Test C postemergence; type: in vivo, Galium aparine; conditions: 10 days, 0 to 100 scale (0 no effect, 100 complete control)
Outline: as §1

oat, wild [4] = experiment: Test C preemergence; type: in vivo, Avena fatua; conditions: for Oat, Wild plant response rating: 500 g ai/ha, preemergence, 0 to 100 scale (0 no effect, 100 complete control); for Plant response rating, Oat, Wild: Preemergence, 125 g ai/ha, 0 to 100 scale, 0 no effect, 100 complete control
Outline: as §1

ragweed [5] = experiment: Test C postemergence; type: in vivo, Ambrosia artemisiifolia; conditions: 10 days, 0 to 100 scale (0 no effect, 100 complete control)
Outline: as §1

barnyardgrass [6] = experiment: Test C postemergence; type: in vivo, Echinochloa crusgalli; conditions: 10 days, 0 to 100 scale (0 no effect, 100 complete control)
Outline: as §1

sedge, umbrella = experiment: Test D flooded paddy test; type: in vivo, Cyperus difformis; conditions: 250 g ai/ha, applied to paddy water, visual rating after 13 to 14 days, scale 0 to 100 (0 no effect, 100 complete control)
Outline: (§2)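 At the 2-leaf stage, floodwater 3 cm deep received the test compound; that depth persisted throughout. Plants scored visually 13 to 14 days on, 0 (no effect) to 100 (complete control), dash indicating no result.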

oat, wild [7] = experiment: Test C postemergence; type: in vivo, Avena fatua; conditions: 10 days, 0 to 100 scale (0 no effect, 100 complete control)
Outline: as §1

kochia [8] = experiment: Test C preemergence; type: in vivo, Bassia scoparia; conditions: for Kochia plant response rating: 500 g ai/ha, preemergence, 0 to 100 scale (0 no effect, 100 complete control); for Plant response rating, Kochia: Preemergence, 125 g ai/ha, 0 to 100 scale, 0 no effect, 100 complete control
Outline: as §1

soybean [9] = experiment: Test C preemergence; type: in vivo, Glycine max; conditions: for Soybean plant response rating: 500 g ai/ha, preemergence, 0 to 100 scale (0 no effect, 100 complete control); for Plant response rating, Soybean: Preemergence, 125 g ai/ha, 0 to 100 scale, 0 no effect, 100 complete control
Outline: as §1

ryegrass, Italian [10] = experiment: Test C preemergence; type: in vivo, Lolium multiflorum; conditions: for Ryegrass, Italian plant response rating: 500 g ai/ha, preemergence, 0 to 100 scale (0 no effect, 100 complete control); for Plant response rating, Ryegrass, Italian: Preemergence, 125 g ai/ha, 0 to 100 scale, 0 no effect, 100 complete control
Outline: as §1

barnyardgrass [11] = experiment: Test D flooded paddy test; type: in vivo, Echinochloa crus-galli; conditions: 250 g ai/ha, applied to paddy water, visual rating after 13 to 14 days, scale 0 to 100 (0 no effect, 100 complete control)
Outline: as §2

horseweed = experiment: Test C postemergence; type: in vivo, Erigeron canadensis; conditions: 10 days, 0 to 100 scale (0 no effect, 100 complete control)
Outline: as §1

rice = experiment: Test D flooded paddy test; type: in vivo, Oryza sativa; conditions: 250 g ai/ha, applied to paddy water, visual rating after 13 to 14 days, scale 0 to 100 (0 no effect, 100 complete control)
Outline: as §2

kochia [12] = experiment: Test C postemergence; type: in vivo, Bassia scoparia; conditions: 10 days, 0 to 100 scale (0 no effect, 100 complete control)
Outline: as §1

foxtail, giant [13] = experiment: Test C postemergence; type: in vivo, Setaria faberi; conditions: 10 days, 0 to 100 scale (0 no effect, 100 complete control)
Outline: as §1

blackgrass [14] = experiment: Test C preemergence; type: in vivo, Alopecurus myosuroides; conditions: for Blackgrass plant response rating: 500 g ai/ha, preemergence, 0 to 100 scale (0 no effect, 100 complete control); for Plant response rating, Blackgrass: Preemergence, 125 g ai/ha, 0 to 100 scale, 0 no effect, 100 complete control
Outline: as §1

foxtail, giant [15] = experiment: Test C preemergence; type: in vivo, Setaria faberi; conditions: for Foxtail, Giant plant response rating: 500 g ai/ha, preemergence, 0 to 100 scale (0 no effect, 100 complete control); for Plant response rating, Foxtail, Giant: Preemergence, 125 g ai/ha, 0 to 100 scale, 0 no effect, 100 complete control
Outline: as §1

barnyardgrass [16] = experiment: Test C preemergence; type: in vivo, Echinochloa crusgalli; conditions: for Barnyardgrass plant response rating: 500 g ai/ha, preemergence, 0 to 100 scale (0 no effect, 100 complete control); for Plant response rating, Barnyardgrass: Preemergence, 125 g ai/ha, 0 to 100 scale, 0 no effect, 100 complete control
Outline: as §1

ragweed [17] = experiment: Test C preemergence; type: in vivo, Ambrosia artemisiifolia; conditions: for Ragweed plant response rating: 500 g ai/ha, preemergence, 0 to 100 scale (0 no effect, 100 complete control); for Plant response rating, Ragweed: Preemergence, 125 g ai/ha, 0 to 100 scale, 0 no effect, 100 complete control
Outline: as §1

ducksalad = experiment: Test D flooded paddy test; type: in vivo, Heteranthera limosa; conditions: 250 g ai/ha, applied to paddy water, visual rating after 13 to 14 days, scale 0 to 100 (0 no effect, 100 complete control)
Outline: as §2

pigweed, palmer [18] = experiment: Test C postemergence; type: in vivo, Amaranthus palmeri; conditions: 10 days, 0 to 100 scale (0 no effect, 100 complete control)
Outline: as §1

ryegrass, Italian [19] = experiment: Test C postemergence; type: in vivo, Lolium multiflorum; conditions: 10 days, 0 to 100 scale (0 no effect, 100 complete control)
Outline: as §1

blackgrass [20] = experiment: Test C postemergence; type: in vivo, Alopecurus myosuroides; conditions: 10 days, 0 to 100 scale (0 no effect, 100 complete control)
Outline: as §1

corn [21] = experiment: Test C postemergence; type: in vivo, Zea mays; conditions: 10 days, 0 to 100 scale (0 no effect, 100 complete control)
Outline: as §1

corn [22] = experiment: Test C preemergence; type: in vivo, Zea mays; conditions: for Corn plant response rating: 500 g ai/ha, preemergence, 0 to 100 scale (0 no effect, 100 complete control); for Plant response rating, Corn: Preemergence, 125 g ai/ha, 0 to 100 scale, 0 no effect, 100 complete control
Outline: as §1

wheat [23] = experiment: Test C postemergence; type: in vivo, Triticum aestivum; conditions: 10 days, 0 to 100 scale (0 no effect, 100 complete control)
Outline: as §1

Cc1cccc2c1OC(C(F)(F)F)CN2C(=O)c1ccnc(-n2cnc(C(C)(C)C)n2)c1 (centres unmarked) [Compound 319]
40: Oat, Wild plant response rating (oat, wild [4]) | Plant response rating, Kochia (kochia [12]; Postemergence, 125 g ai/ha) | Plant response rating, Barnyardgrass (barnyardgrass [16])
50: Plant response rating, Blackgrass (blackgrass [14]) | Plant response rating, Ryegrass, Italian (ryegrass, Italian [19]; 500 g ai/ha, postemergence) | Plant response rating, Corn (corn [21]; 500 g ai/ha, postemergence)
100: Plant response rating, Soybean (soybean [3]; 500 g ai/ha, postemergence) | Plant response rating, Soybean (soybean [3]; Postemergence, 125 g ai/ha) | Soybean plant response rating (soybean [9]) | Ryegrass, Italian plant response rating (ryegrass, Italian [10]) | Plant response rating, Ryegrass, Italian (ryegrass, Italian [10]) | Foxtail, Giant plant response rating (foxtail, giant [15]) | Plant response rating, Foxtail, Giant (foxtail, giant [15])
70: Plant response rating, Galium (galium; 500 g ai/ha, postemergence) | Plant response rating, Ragweed (ragweed [5]; 500 g ai/ha, postemergence) | Blackgrass plant response rating (blackgrass [14])
20: Plant response rating, Oat, Wild (oat, wild [4]) | Plant response rating, Soybean (soybean [9]) | Plant response rating, Corn (corn [21]; Postemergence, 125 g ai/ha) | Corn plant response rating (corn [22])
60: Plant response rating, Galium (galium; Postemergence, 125 g ai/ha) | Plant response rating, Barnyardgrass (barnyardgrass [6]; 500 g ai/ha, postemergence)
30: Wheat plant response rating (wheat [2]) | Plant response rating, Oat, Wild (oat, wild [7]; 500 g ai/ha, postemergence) | Plant response rating, Horseweed (horseweed; 500 g ai/ha, postemergence) | Plant response rating, Foxtail, Giant (foxtail, giant [13]; Postemergence, 125 g ai/ha) | Plant response rating, Pigweed, Palmer (pigweed, palmer [18]; Postemergence, 125 g ai/ha) | Plant response rating, Ryegrass, Italian (ryegrass, Italian [19]; Postemergence, 125 g ai/ha)
0: Plant response rating, Wheat (wheat [2]) | Plant response rating, Ragweed (ragweed [5]; Postemergence, 125 g ai/ha) | Plant response rating, Sedge, Umbrella (Flood) (sedge, umbrella) | Plant response rating, Oat, Wild (oat, wild [7]; Postemergence, 125 g ai/ha) | Kochia plant response rating (kochia [8]) | Plant response rating, Kochia (kochia [8]) | Plant response rating, Barnyardgrass (Flood) (barnyardgrass [11]) | Plant response rating, Horseweed (horseweed; Postemergence, 125 g ai/ha) | Plant response rating, Rice (Flood) (rice) | Ragweed plant response rating (ragweed [17]) | Plant response rating, Ragweed (ragweed [17]) | Plant response rating, Ducksalad (Flood) (ducksalad) | Plant response rating, Corn (corn [22])
10: Plant response rating, Barnyardgrass (barnyardgrass [6]; Postemergence, 125 g ai/ha) | Plant response rating, Blackgrass (blackgrass [20]; Postemergence, 125 g ai/ha) | Plant response rating, Wheat (wheat [23]; 500 g ai/ha, postemergence) | Plant response rating, Wheat (wheat [23]; Postemergence, 125 g ai/ha)
90: Pigweed, Palmer plant response rating (pigweed, palmer [1]) | Plant response rating, Kochia (kochia [12]; 500 g ai/ha, postemergence) | Barnyardgrass plant response rating (barnyardgrass [16])
80: Plant response rating, Pigweed, Palmer (pigweed, palmer [1]) | Plant response rating, Foxtail, Giant (foxtail, giant [13]; 500 g ai/ha, postemergence) | Plant response rating, Pigweed, Palmer (pigweed, palmer [18]; 500 g ai/ha, postemergence) | Plant response rating, Blackgrass (blackgrass [20]; 500 g ai/ha, postemergence)

Cc1ncn(-c2cc(C(=O)N3CC(C(F)(F)F)Oc4c(Cl)cccc43)ccn2)n1 (centres unmarked) [Compound 321]
40: Plant response rating, Ragweed (ragweed [5]; 500 g ai/ha, postemergence) | Soybean plant response rating (soybean [9]) | Plant response rating, Barnyardgrass (barnyardgrass [16]) | Corn plant response rating (corn [22])
90: Plant response rating, Soybean (soybean [3]; Postemergence, 125 g ai/ha) | Plant response rating, Barnyardgrass (barnyardgrass [6]; 500 g ai/ha, postemergence) | Plant response rating, Oat, Wild (oat, wild [7]; 500 g ai/ha, postemergence) | Kochia plant response rating (kochia [8]) | Plant response rating, Ryegrass, Italian (ryegrass, Italian [10]) | Plant response rating, Foxtail, Giant (foxtail, giant [13]; 500 g ai/ha, postemergence) | Blackgrass plant response rating (blackgrass [14]) | Plant response rating, Blackgrass (blackgrass [20]; 500 g ai/ha, postemergence) | Plant response rating, Corn (corn [21]; 500 g ai/ha, postemergence)
80: Oat, Wild plant response rating (oat, wild [4]) | Plant response rating, Kochia (kochia [12]; 500 g ai/ha, postemergence) | Plant response rating, Blackgrass (blackgrass [14]) | Ragweed plant response rating (ragweed [17]) | Plant response rating, Ryegrass, Italian (ryegrass, Italian [19]; 500 g ai/ha, postemergence) | Plant response rating, Wheat (wheat [23]; 500 g ai/ha, postemergence)
70: Plant response rating, Foxtail, Giant (foxtail, giant [13]; Postemergence, 125 g ai/ha)
20: Plant response rating, Barnyardgrass (barnyardgrass [6]; Postemergence, 125 g ai/ha) | Plant response rating, Kochia (kochia [8]) | Plant response rating, Wheat (wheat [23]; Postemergence, 125 g ai/ha)
60: Plant response rating, Kochia (kochia [12]; Postemergence, 125 g ai/ha) | Plant response rating, Pigweed, Palmer (pigweed, palmer [18]; 500 g ai/ha, postemergence) | Plant response rating, Ryegrass, Italian (ryegrass, Italian [19]; Postemergence, 125 g ai/ha) | Plant response rating, Blackgrass (blackgrass [20]; Postemergence, 125 g ai/ha)
100: Pigweed, Palmer plant response rating (pigweed, palmer [1]) | Plant response rating, Soybean (soybean [3]; 500 g ai/ha, postemergence) | Plant response rating, Galium (galium; 500 g ai/ha, postemergence) | Plant response rating, Galium (galium; Postemergence, 125 g ai/ha) | Ryegrass, Italian plant response rating (ryegrass, Italian [10]) | Foxtail, Giant plant response rating (foxtail, giant [15]) | Plant response rating, Foxtail, Giant (foxtail, giant [15]) | Barnyardgrass plant response rating (barnyardgrass [16])
0: Plant response rating, Oat, Wild (oat, wild [4]) | Plant response rating, Sedge, Umbrella (Flood) (sedge, umbrella) | Plant response rating, Soybean (soybean [9]) | Plant response rating, Barnyardgrass (Flood) (barnyardgrass [11]) | Plant response rating, Horseweed (horseweed; 500 g ai/ha, postemergence) | Plant response rating, Horseweed (horseweed; Postemergence, 125 g ai/ha) | Plant response rating, Rice (Flood) (rice) | Plant response rating, Ragweed (ragweed [17]) | Plant response rating, Ducksalad (Flood) (ducksalad)
10: Plant response rating, Wheat (wheat [2]) | Plant response rating, Oat, Wild (oat, wild [7]; Postemergence, 125 g ai/ha) | Plant response rating, Pigweed, Palmer (pigweed, palmer [18]; Postemergence, 125 g ai/ha) | Plant response rating, Corn (corn [22])
30: Wheat plant response rating (wheat [2]) | Plant response rating, Ragweed (ragweed [5]; Postemergence, 125 g ai/ha)
50: Plant response rating, Pigweed, Palmer (pigweed, palmer [1]) | Plant response rating, Corn (corn [21]; Postemergence, 125 g ai/ha)
